Patent publication US4182896A, “Indane derivatives” (Societe Hexachimie, priority 1974, dated 1980)
Counter-ions that a name gives are not always drawn.

Tests used:
[1] = tested on: male mice (SPF1, OF1 strain); assay: Analgesic activity: inhibition of pain reactions (abdominal twistings) after intraperitoneal phenylbenzoquinone, oral administration; type: in vivo; details: for inhibition in vivo at 64 mg/kg: 64 mg/kg oral; for inhibition in vivo at 256 mg/kg: 256 mg/kg oral; for ED50: read-out: ED50 (50% effective dose), analgesic; for inhibition in vivo at 512 mg/kg: 512 mg/kg oral; for percentage inhibition of pain reactions / ED50 (50% effective dose), analgesic: mouse; for ED50 (50% effective dose), analgesic: oral; for inhibition in vivo at 4 mg/kg: 4 mg/kg oral
Procedure: The products tested are administered orally to batches of 6 male mice (SPF1, OF1 strain) weighing 19-20 g.
1 hour later, 0.3 ml of a 0.02% strength solution of phenylbenzoquinone is injected intraperitoneally into each mouse and, from the 5th to the 10th minute after the latter treatment, the number of pain reactions (abdominal twistings) is counted.
Table V to VIII below give the percentage inhibition of these reactions.

[2] = tested on: SPF male rats, OFA strain; assay: Anti-inflammatory activity: paw swelling after subcutaneous plantar injection of carraghenine, oral administration; type: in vivo; details: for ED50 / ED50 (50% effective dose), anti-inflammatory: at the moment of greatest swelling of the controls; for ED50: read-out: ED50 (50% effective dose), anti-inflammatory; for inhibition in vivo at 512 mg/kg: 512 mg/kg oral; for percentage reduction in the inflammation / ED50 (50% effective dose), anti-inflammatory: rat; for ED50 (50% effective dose), anti-inflammatory: oral
Procedure: Anti-inflammatory activity
The products to be tested are administered orally to batches of 12 SPF male rats, OFA strain, weighing 120-130 g, 2 hours and 30 minutes (1/2 dose each time) before the subcutaneous plantar injection of 0.05 ml of a 1% strength solution of carraghenine. The volume of the back paw which received the phlogogenic agent is measured at regular intervals. The 50% effective dose is calculated at the moment of greatest swelling of the controls.
The results are given in Tables I to IV below, in which the percentage reduction in the inflammation is noted.

[3] = Mus musculus, po, 16 mg/kg oral, read-out: percentage inhibition of pain reactions
[4] = Mus musculus, po, 32 mg/kg oral, read-out: percentage inhibition of pain reactions
[5] = Mus musculus, po, read-out: percentage inhibition of pain reactions
[6] = Mus musculus, po, 128 mg/kg oral, read-out: percentage inhibition of pain reactions
[7] = Rattus norvegicus, po, 64 mg/kg oral, carraghenine, read-out: percentage reduction in the inflammation
[8] = Rattus norvegicus, po, 128 mg/kg oral, carraghenine, read-out: percentage reduction in the inflammation
[9] = Rattus norvegicus, po, 256 mg/kg oral, carraghenine, read-out: percentage reduction in the inflammation
[10] = Rattus norvegicus, po, 32 mg/kg oral, carraghenine, read-out: percentage reduction in the inflammation
[11] = Mus musculus, po, 8 mg/kg oral, read-out: percentage inhibition of pain reactions
[12] = Rattus norvegicus, po, 16 mg/kg oral, carraghenine, read-out: percentage reduction in the inflammation
[13] = Rattus norvegicus, po, carraghenine, read-out: percentage reduction in the inflammation

| Structure (SMILES) | inhibition in vivo at 16 mg/kg [1, 3] [%] | inhibition in vivo at 32 mg/kg [1, 4] [%] | inhibition in vivo at 64 mg/kg [1, 5] [%] | inhibition in vivo at 128 mg/kg [1, 6] [%] | inhibition in vivo at 256 mg/kg [1, 5] [%] | ED50 ([1]; Mus musculus, po) [mg/kg] | inhibition in vivo at 64 mg/kg [2, 7] [%] | inhibition in vivo at 128 mg/kg [2, 8] [%] | inhibition in vivo at 256 mg/kg [2, 9] [%] | ED50 ([2]; Rattus norvegicus, po) [mg/kg] | inhibition in vivo at 32 mg/kg [2, 10] [%] | inhibition in vivo at 16 mg/kg [2, 12] [%] | other results |
| --- | --- | --- | --- | --- | --- | --- | --- | --- | --- | --- | --- | --- | --- |
| CC1CC(C)c2cc(CC(=O)O)ccc21 (centres unmarked) [Example 1, [1,3-Dimethyl-indanyl-(5)]-acetic acid] | 25 | 28 | 67 | 89 | 94 | 43 | 15 | 42 | 88 | 130 | – | – | – |
| CC1CC(C)c2cc(CC(=O)O)c(Cl)cc21 (centres unmarked) [Example 3, [6-Chloro-1,3-dimethyl-indanyl-(5)]-acetic acid] | 33 | 51 | 66 | 66 | 94 | 33 | 24 | 36 | 56 | 200 | – | – | – |
| CC(C)C1Cc2ccc(CC(=O)O)cc2C1 (centres unmarked) [Example 4, [2-Isopropyl-indanyl-(5)]-acetic acid] | 6 | 33 | 70 | 99 | – | 40 | 19 | 47 | 80 | 120 | 10 | – | – |
| O=C(O)Cc1ccc2c(c1)CCC2C1CCCCC1 (centres unmarked) [Example 5, [1-Cyclohexyl-indanyl-(5)]-acetic acid] | – | – | 32 | – | 58 | ~150 | – | – | – | – | – | – | – |
| CC(C(=O)O)c1ccc2c(c1)CC(C(C)C)C2 (centres unmarked) [Example 7, 2-Methyl-[2-Isopropyl-indanyl-(5)]-acetic acid] | 61 | 96 | – | – | – | 14 | 73 | 75 | – | 22 | 61 | 43 | inhibition in vivo at 8 mg/kg [1, 11]: 17%; inhibition in vivo at 8 mg/kg ([2]; Rattus norvegicus, po, 8 mg/kg oral, carraghenine, read-out: percentage reduction in the inflammation): 29% |
| CC(C)C1Cc2ccc(CC(=O)OCCN3CCOCC3)cc2C1 (centres unmarked) [Example 8, Hydrochloride of the morpholino-ethyl ester of [2-isopropyl-indanyl-(5)]-acetic acid] | – | 10 | 67 | 73 | 90 | 70 | 23 | 52 | 62 | 150 | 17 | – | – |
| CC(C(=O)OCCN1CCOCC1)c1ccc2c(c1)CC(C(C)C)C2 (centres unmarked) [Example 9, Morpholino-ethyl ester of 2-methyl-[2-isopropyl-indanyl-(5)]-acetic acid] | – | 28 | 26 | 79 | 97 | 78 | 80 | – | – | 17 | 68 | 47 | – |
| O=C(O)Cc1ccc2c(c1)CC(C1CCCCC1)C2 (centres unmarked) [Example 11, [2-Cyclohexyl-indanyl-(5)]-acetic acid] | – | 15 | 29 | 58 | 59 | 140 | 8 | 13 | 13 | > 512 | 4 | – | inhibition in vivo at 512 mg/kg [1, 5]: 83%; inhibition in vivo at 512 mg/kg [2, 13]: 32% |
| CC1Cc2ccc(CC(=O)O)cc2C1 (centres unmarked) [Example 12, [2-Methyl-indanyl-(5)]-acetic acid] | – | 9 | 20 | 46 | 67 | 175 | 49 | 71 | 80 | 70 | 23 | 15 | inhibition in vivo at 512 mg/kg [1, 5]: 75% |
| CC1(C)Cc2ccc(CC(=O)O)cc2C1 [Example 13, [2,2-Dimethyl-indanyl-(5)]-acetic acid] | 15 | 30 | 71 | 83 | – | 46 | 37 | 47 | 51 | 200 | 29 | 23 | – |
| CC(C(=O)O)c1ccc2c(c1)CC(C1CCCCC1)C2 (centres unmarked) [Example 14, 2-Methyl-[2-cyclohexyl-indanyl-(5)]-acetic acid] | – | 20 | 35 | 52 | 62 | 110 | 16 | 17 | 31 | > 512 | 5 | 11 | inhibition in vivo at 512 mg/kg [1, 5]: 93%; inhibition in vivo at 512 mg/kg [2, 13]: 34% |
| CC(C(=O)O)c1ccc2c(c1)CC(C)(C)C2 (centres unmarked) [Example 16, 2-Methyl-[2,2-dimethyl-indanyl-(5)]-acetic acid] | 30 | 77 | 96 | – | – | 19 | 37 | 61 | 94 | 73 | 20 | 4 | inhibition in vivo at 8 mg/kg [1, 11]: 13% |
| CCC(C(=O)O)c1ccc2c(c1)CC(C(C)C)C2 (centres unmarked) [Example 17, 2-Ethyl-[2-isopropyl-indanyl-(5)]-acetic acid] | – | – | 28 | – | 83 | – | – | – | – | – | – | 13 | percentage inhibition of pain reactions ([1]; 128 mg/kg oral): 70%; inhibition in vivo at 512 mg/kg [1, 5]: 100%; ED50 (50% effective dose), analgesic [1]: 100 mg/kg; percentage reduction in the inflammation ([2]; 32 mg/kg oral, carraghenine): 24%; percentage reduction in the inflammation ([2]; 64 mg/kg oral, carraghenine): 30%; percentage reduction in the inflammation ([2]; 128 mg/kg oral, carraghenine): 38%; percentage reduction in the inflammation ([2]; 256 mg/kg oral, carraghenine): 43%; ED50 (50% effective dose), anti-inflammatory [2]: > 256 mg/kg |
| CCC1Cc2ccc(C(C)C(=O)O)cc2C1 (centres unmarked) [Example 18, 2-Methyl-[2-ethyl-indanyl-(5)]-acetic acid] | 75 | 95 | – | – | – | 6.5 | 61 | 66 | 77 | 36 | 54 | 31 | inhibition in vivo at 2 mg/kg ([1]; Mus musculus, po, 2 mg/kg oral, read-out: percentage inhibition of pain reactions): 18%; inhibition in vivo at 4 mg/kg [1, 5]: 27%; inhibition in vivo at 8 mg/kg [1, 11]: 58% |
| CC(C(=O)O)c1ccc2c(c1)CC(C(C)C)C2 (centres unmarked) [Example 19, Dimethylaminoethanol salt of 2-methyl-[2-isopropyl-indanyl-(5)]-acetic acid] | – | – | 96 | – | – | – | – | – | 82 | – | – | – | percentage inhibition of pain reactions ([1]; 8 mg/kg oral): 31%; percentage inhibition of pain reactions ([1]; 16 mg/kg oral): 54%; percentage inhibition of pain reactions ([1]; 32 mg/kg oral): 82%; inhibition in vivo at 4 mg/kg [1, 5]: 5%; ED50 (50% effective dose), analgesic [1]: 14 mg/kg; percentage reduction in the inflammation ([2]; 8 mg/kg oral, carraghenine): 20%; percentage reduction in the inflammation ([2]; 16 mg/kg oral, carraghenine): 44%; percentage reduction in the inflammation ([2]; 32 mg/kg oral, carraghenine): 48%; percentage reduction in the inflammation ([2]; 64 mg/kg oral, carraghenine): 63%; percentage reduction in the inflammation ([2]; 128 mg/kg oral, carraghenine): 67%; inhibition in vivo at 4 mg/kg ([2]; Rattus norvegicus, po, 4 mg/kg oral, carraghenine, read-out: percentage reduction in the inflammation): 25%; ED50 (50% effective dose), anti-inflammatory [2]: 30 mg/kg |
